The test addresses T1, epithelial Na+ channel (mENaC; α-, β- and γ-mouse ENaC subunits) (Mus musculus, UniProt Q61180+Q9WU38+Q9WU39).
T1 construct: gene Scnn1a; α-, β- and γ-mouse ENaC subunits genetically linked to NH2-terminal eCFP, expressed in CHO cells; with β- and γ-ENaC subunits (Scnn1b, Scnn1g)
T1 sequence (Q61180 1-699): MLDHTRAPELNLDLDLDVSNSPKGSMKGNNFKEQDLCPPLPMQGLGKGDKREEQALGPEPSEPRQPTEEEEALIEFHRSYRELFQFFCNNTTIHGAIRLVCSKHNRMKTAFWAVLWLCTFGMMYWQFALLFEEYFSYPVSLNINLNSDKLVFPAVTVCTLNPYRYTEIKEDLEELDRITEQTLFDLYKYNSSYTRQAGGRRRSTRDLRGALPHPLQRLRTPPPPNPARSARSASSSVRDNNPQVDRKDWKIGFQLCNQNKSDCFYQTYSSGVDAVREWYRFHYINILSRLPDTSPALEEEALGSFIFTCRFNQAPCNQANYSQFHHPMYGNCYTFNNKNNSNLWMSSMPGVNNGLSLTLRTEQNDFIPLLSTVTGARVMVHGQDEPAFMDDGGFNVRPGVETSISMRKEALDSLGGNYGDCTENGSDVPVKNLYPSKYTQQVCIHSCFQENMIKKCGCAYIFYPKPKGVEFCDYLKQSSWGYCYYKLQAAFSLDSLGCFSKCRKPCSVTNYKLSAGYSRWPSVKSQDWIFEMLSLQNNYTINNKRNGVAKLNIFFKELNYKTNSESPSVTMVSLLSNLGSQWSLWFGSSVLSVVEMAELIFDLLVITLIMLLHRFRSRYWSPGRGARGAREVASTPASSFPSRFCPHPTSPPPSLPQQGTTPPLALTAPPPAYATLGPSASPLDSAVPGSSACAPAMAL
T1 sequence (Q9WU38 1-638): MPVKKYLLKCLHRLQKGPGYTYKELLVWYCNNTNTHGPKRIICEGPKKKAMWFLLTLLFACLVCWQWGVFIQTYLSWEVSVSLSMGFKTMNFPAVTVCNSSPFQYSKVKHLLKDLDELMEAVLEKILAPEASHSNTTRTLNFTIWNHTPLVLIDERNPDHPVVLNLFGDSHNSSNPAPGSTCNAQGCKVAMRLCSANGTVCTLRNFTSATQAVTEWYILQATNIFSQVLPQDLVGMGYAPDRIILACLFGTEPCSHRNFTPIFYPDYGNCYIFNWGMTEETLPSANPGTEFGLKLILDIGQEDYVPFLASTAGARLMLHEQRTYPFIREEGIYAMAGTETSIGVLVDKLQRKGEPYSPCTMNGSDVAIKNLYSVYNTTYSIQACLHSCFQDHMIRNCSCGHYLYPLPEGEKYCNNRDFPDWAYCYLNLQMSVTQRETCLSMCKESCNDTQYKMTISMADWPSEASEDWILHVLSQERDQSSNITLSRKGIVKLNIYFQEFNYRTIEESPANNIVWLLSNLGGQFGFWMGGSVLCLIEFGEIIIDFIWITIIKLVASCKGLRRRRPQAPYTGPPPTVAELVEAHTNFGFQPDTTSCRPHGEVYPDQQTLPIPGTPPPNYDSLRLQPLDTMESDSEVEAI
T1 sequence (Q9WU39 1-655): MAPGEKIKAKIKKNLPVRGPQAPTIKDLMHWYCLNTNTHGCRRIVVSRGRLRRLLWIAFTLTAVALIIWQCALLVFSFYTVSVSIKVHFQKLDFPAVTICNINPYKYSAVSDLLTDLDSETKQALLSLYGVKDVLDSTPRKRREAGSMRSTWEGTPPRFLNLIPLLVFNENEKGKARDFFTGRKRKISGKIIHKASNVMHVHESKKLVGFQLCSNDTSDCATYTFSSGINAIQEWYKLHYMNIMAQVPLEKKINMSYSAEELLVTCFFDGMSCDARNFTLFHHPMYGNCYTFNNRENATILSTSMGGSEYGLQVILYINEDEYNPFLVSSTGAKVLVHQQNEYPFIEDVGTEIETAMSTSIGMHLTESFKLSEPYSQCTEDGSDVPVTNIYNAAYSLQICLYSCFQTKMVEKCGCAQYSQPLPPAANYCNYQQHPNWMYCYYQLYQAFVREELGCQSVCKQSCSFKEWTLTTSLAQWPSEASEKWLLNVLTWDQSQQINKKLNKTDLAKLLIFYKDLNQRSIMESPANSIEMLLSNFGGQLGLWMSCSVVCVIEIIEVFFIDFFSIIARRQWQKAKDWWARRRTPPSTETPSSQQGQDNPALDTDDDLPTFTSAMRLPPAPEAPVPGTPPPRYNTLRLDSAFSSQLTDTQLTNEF
As to the kind of experiment: whole-cell patch clamp dose-response and competition with amiloride in CHO cells (partial inhibitor, Emax […]); direct action inferred, secondary effects not excluded. It is filed as cell-based. In general terms: Patch clamp records ionic current or voltage across a cell membrane.

With `[NH2][Pt]([NH2])([Cl])[Cl]` [CDDP, cis-diamminedichloroplatinum (II)], the IC50 (usually the midpoint of a concentration-inhibition curve) worked out at 1000 ± 180 nM.

The record behind these values is article PMC7464492, “Cisplatin Decreases ENaC Activity Contributing to Renal Salt Wasting Syndrome” (Cancers, 2020).
